Data taken from article PMC5593926, “Induction of high titred, non-neutralising antibodies by self-adjuvanting peptide epitopes derived from the respiratory syncytial virus fusion protein” (Scientific Reports, 2017).
Entries after “also recorded” stand apart in the source; their conditions may differ. Bridge positions count the residues as written; N and C are the ends. Square brackets hold non-standard residues; d marks the D form. I, II: the chains in the order shown. ξ: configuration not given here. ξGly(tetradecyl) = CCCCCCCCCCCCCCC(N)C(=O)O

What was measured:
[1] = Secondary structure analysis by circular dichroism; format: physicochemical; conditions: 600 µg/ml; spectra not detected
Description: Conformational studies of constructs were performed using a J-710 spectropolarimeter (Jasco Corporation, Japan). Samples with 600 µg/ml concentration were transferred into a low volume quartz cuvette with 0.1 cm path length. CD spectra were analysed between 250 nm and 190 nm wavelengths. Measurements were performed in triplicate (reported as an average of readings). Spectral results are reported as mean residual ellipticity (θ) versus wavelength (nm).

[2] = biological target: Motavizumab (site II specific); assay: ELISA binding of Motavizumab to plate-coated vaccine constructs, one-site model; design: species or system human; conditions: serial dilution of antibody on ELISA plates coated with construct; saturation one-site specific binding model; read-out: Mota kD
Description: (§1) We further tested the ability of site II and site Ø specific antibodies (Motavizumab and D25, respectively) to recognise the peptides and LCP constructs. Dissociation constant (kD) values were derived from a saturation one-site model. D25 clearly recognised the ØLCP2 (66 ± 14 nM) but not ØLCP1 (Fig. 3A). In comparison, in our analysis D25 bound to the native pre-fusion RSV F (FDs-Cav1) with approximately […] stronger avidity (0.92 ± 0.08 nM). Motavizumab bound IILCP4 with the highest avidity (3.8 ± 0.9 nM), while in our analysis Motavizumab bound FDs-Cav1 with approximately 25 fold stronger avidity (0.15 ± 0.01 nM). Motavizumab also recognised IILCP3, 5, 6 and 7 and IIP5 (Fig. 3B). In general binding avidity was stronger for LCP constructs compared to original peptides.
Figure 3 Binding avidity of monoclonal antibodies against vaccine candidates. Antibody binding assessed by serial dilution of antibody on ELISA plates were coated with vaccine constructs and curve fitting by non-linear regression with a one site specific binding model using Graphpad Prism 7 software. (A) D25 antibody recognised ØLCP2 (kD: 66 ± 014 nM) and to a lesser extent ØP2 (kD: 720 ± 036nM). Binding to FDs Cav1 used as positive control (kD: 0.92 ± 00.08 nM). Motavizumab recognised IILCP4 (kD: 3.8 ± 00.9nM), IILCP5 (kD: 16 ± 03nM), IILCP7 (kD: 17 ± 011nM), IIP5 (kD: 23 ± 05nM) and to a lesser extent IILCP6 (kD: 40 ± 04nM). Binding FDs Cav1 was used as a positive control (kD: 0.15 ± 00.01nM).
(§2) An indirect enzyme-linked immunosorbent assay (ELISA) was used to determine the IgG antibody titre. Peptide antigens were used to coat 96-well plates (TITERTEK®) at a concentration of 5 μg/ml in 20 mM sodium carbonate buffer (pH 9.6), overnight at 4 °C. […] Plates were washed as above and secondary antibody binding was detected with the addition of 3,3′,5,5′-Tetramethylbenzidine (TMB) reagent (Thermo Fisher Scientific) at 50 µl/well. Reactions were stopped with 2M H2SO4 (25 µl/well) and absorbance was read at 450 nm on a SpectraMax® 190 (Molecular Devices) microplate reader.

[3] = Particle size analysis by dynamic light scattering; format: physicochemical; conditions: 1% DMSO in PBS, 600 µg/ml, 25 °C, 173° backscattering, five replicates
Description: Peptides were dissolved in 1% DMSO in phosphate buffered saline (PBS) to a concentration of 600 µg/ml. Particle size was measured using a Zetasizer Nano ZP instrument (Malvern Instrument, UK) via M3-PALS technique with a 173° backscattering angle, at 25 °C. Measurement was performed in five replicates.

[4] = system: relevant antigen (peptide and LCP constructs); assay: IgG antibody titres in sera of immunised mice against the relevant antigen (ELISA); format: in vivo, C57BL/6 mice; conditions: 30 µg s.c. on day 0, 21, 28, 35, LCP in PBS with 1% DMSO, peptides mixed with PADRE and CFA, ELISA against matched antigen
Description: A total of 70 female C57BL/6 mice (6–8 weeks old) were purchased from the University of Queensland Biological Resources (UQBR), and housed in the AIBN animal house facility. All experimental procedures performed in this study were carried out in accordance with National Health & Medical Research Council guidelines and approved by The University of Queensland Animal Ethics Committee. Mice (n=5 per group) were injected subcutaneously at the tail base on day 0, 21, 28, 35 (Supplementary, Fig S15) with 30 µg of each construct in phosphate-buffered saline (PBS). 1% DMSO was included for LCP constructs to aid solubility. The negative control group were administered with 50 μl of PBS. Control groups included peptides (ØP1,2 and IIP3–5) physically mixed with PADRE (1:1) and emulsified in a total volume of 50 μl of complete Freund’s adjuvant (CFA)-PBS (1:1) for the first immunisation and PADRE-peptide mixture in PBS for subsequent immunisations. […]
as §2, with “titre.” for “titre. Peptide antigens were used to coat 96-well plates (TITERTEK®) at a concentration of 5 μg/ml in 20 mM sodium carbonate buffer (pH 9.6), overnight at 4 °C.”

[5] = system: D25 antibody (site Ø specific); assay: ELISA binding of D25 antibody to plate-coated vaccine constructs, one-site model; design: species or system human; conditions: construct coated on plate
Description: as §1
Figure 3 Binding avidity of monoclonal antibodies against vaccine candidates. Antibody binding assessed by serial dilution of antibody on ELISA plates were coated with vaccine constructs and curve fitting by non-linear regression with a one site specific binding model using Graphpad Prism 7 software. […]
An indirect enzyme-linked immunosorbent assay (ELISA) was used to determine the IgG antibody titre. […] Plates were washed as above and secondary antibody binding was detected with the addition of 3,3′,5,5′-Tetramethylbenzidine (TMB) reagent (Thermo Fisher Scientific) at 50 µl/well. […]

RSV = RSV plaque reduction neutralisation test (PRNT); format: cell-based, RSV (A2); conditions: purified chimeric recombinant anti-F antibody, Vero cells
Description: Vero cells were seeded in 96-well tissue culture plates (Nunc®) at 4 × 10^4 cells/well in Opti-MEM supplemented with 3% FBS and 100 U penicillin with 100 μg/ml streptomycin. After overnight growth to allow a confluent monolayer, serial dilutions of virus stock were prepared in Opti-MEM (2% FBS and 100 U penicillin with 100 μg/ml streptomycin) and incubated at 37 °C, 5% CO2 for 1 h. Cell monolayers were inoculated with 50 μL of virus and incubated. After 1 h, the inoculum was replaced with overlay medium (Medium 199 with 3% methylcellulose, 2% FBS, 100 U penicillin with 100 μg/ml streptomycin) and incubated at 37 °C for 72 h. Overlay medium was aspirated and cells were fixed (80% acetone) and immunostained with a recombinant anti-RSV monoclonal antibody followed by IRDye® 800CW goat anti-mouse IgG, LI-COR Biosciences (1:2500). Plaques were read using Odyssey® Imager (LI-COR Biosciences) and titre was recorded as PFU/ml.
PRNT assays were performed as previously described. Briefly, pooled Sera was heat inactivated at 56 °C for 30 min. Dilutions of serum were combined with 50 PFU of RSV in serum free Opti-MEM and incubated at 37 °C for 1 h before applying to confluent monolayers of Vero cells in TC96-well plates. Cells were incubated with the serum-virus mixture at 37 °C for 1 h. Inoculum was aspirated and overlay medium was added and cells were incubated at 37 °C for 72 h. […]

Row | Substance | Kd [2] | Diameter DLS [3] | antigen specific IgG response in sera (in words) [4] | further results
1 | I: Ac-[ξGly(tetradecyl)][ξGly(tetradecyl)]LTNSELLSLINDMPITNDQKKLMSNNVQIVRQQS / II: Ac-AKFVAAWTLKAAAKSS[ξGly(tetradecyl)][ξGly(tetradecyl)]-NH2 (amide I:C-II:14) [IILCP7] | 17 ± 11 nM | 261±20 nm | – | aggregation under CD measurement condition [1]: aggregation
2 | Ac-LTNSELLSLINDMPITNDQKKLMSNNVQIVRQQS-NH2 [IIP5] | 23 ± 5 nM | – | higher specific IgG titres; also recorded: strong response | –
3 | I: Ac-LTNSELLSLINDMPITNDQKKLMSNNVQIVRQQS / II: Ac-AKFVAAWTLKAAAKSS[ξGly(tetradecyl)][ξGly(tetradecyl)]-NH2 (amide I:C-II:14) [IILCP5] | 16 ± 3 nM | 181±25 nm | higher specific IgG titres; also recorded: robust antibody response | –
4 | KNYIDKQLLPIVNKQS [ØP1] | – | – | – | recognition by D25 (in words) [5]: Neither ØP1 nor ØLCP1 bound to D25
5 | Motavizumab | – | – | – | neutralisation of RSV by purified antibody (in words) (RSV): potent neutralisation
